Measurements reported in patent publication US20090036437A1, “PHARMACEUTICAL COMPOSITION COMPRISING PHENOXAZINIUM COMPOUND AS AN ACTIVE INGREDIENT” (priority 2005, published 2009).
Read-outs that look alike come from different tables or passages of the source.

Columns and labels:
[1] = system: Leishmania donovani (MHOM/ET/67/L82 strain); experiment: in vitro growth-inhibiting screening assay, protozoa of Leishmaniasis; type: cell-based; settings: amastigotes; 72 h, Alamar Blue; read-out: growth-inhibiting concentration (nM) Leishmania donovani
Method: This test was done using the protozoa of Leishmania donovani (MHOM/ET/67/L82 strain). The protozoa were subcultured using Syrian Golden hamster and an amastigote was obtained therefrom. The amastigotes were cultured in SM medium supplemented with 10% of heat-treated fetal calf serum (pH 5.4) under CO2 concentration of 5%, at 37° C.
A test sample was prepared by dissolving the test compounds according to the present invention and a positive control drug (Miltefosine) in DMSO to a predetermined concentration. Culture medium containing a predetermined number of the protozoa was added into each well of a 96-well culture plate, and the concentration of the amastigotes was measured by means of CASY cell analysis system (Dermany, Scharfe Co.). Test sample comprising the predetermined amount of the test compound, and DMSO without the test compound were added to the wells in duplicate.
(§1) After incubation of the culture plate for 72 hours in an incubator, a growth-inhibiting activity was assayed as follows. Alamar Blue aqueous solution (10 μL) was added to each well followed by a further two-hour culture. The culture plate was then attached to a fluorescence micro titer plate reader (Spectramax Gemeni XS; U.S. Molecular device Co.), the intensity of fluorescence at 588 nm was detected with excitation wave length of 536 nm to calculate an infection ratio of the protozoa with respect to a group trated with the test sample and a control group. A growth-inhibiting ratio was then calculated from the resulting infection ratio in accordance with the following equation to determine 50% growth-inhibiting concentration (EC50).
(§2) Growth-inhibiting ratio (%)=[1−(b−a)/(c−a)]×100 • a: Initial infection ratio; • b: Infection ratio of the test sample group; and • c: Infection ratio of the control group.
A selective toxicity coefficient, which is used as an index for the selective toxicity for the protozoa of Leishmaniasis, was calculated by the following equation, and the pharmaceutical effect was determined.
A selective toxicity coefficient=(EC50 value of the test sample for rat L6 cell)/(EC50 value of the test sample for the protozoa of Leishmaniasis).

[2] = system: Trypanosoma brucei rhodensiense (STIB 900 strain); experiment: in vitro growth-inhibiting screening assay, protozoa of African trypanosomiasis; type: cell-based; settings: for EC50: 72 h, Alamar Blue, read-out: 50% growth-inhibiting concentration (nM) Trypanosoma brucei rhod.
Method: This test was done using a trypomastigote of the protozoa of Trypanosoma brucei rhodensiense (STIB 900 strain) ranging in blood stream. MEM medium sterilized by filtration was supplemented with 25 mM of N-2-hydroxyethylpiperazine-2-ethanesulfonic acid (HEPES), 1 g/L of glucose, 1% of MEM non-essential amino acids, 0.2 mM of 2-mercaptoethanol, 2 mM of sodium pyruvate, 1 mM of hypoxathine and 15% of heat-treated horse serum. The protozoa were cultured under CO2 concentration of 5%, at 37° C.
A test sample was prepared by dissolving the test compounds according to the present invention and a positive control drug (Melarsoprol) in DMSO to a predetermined concentration. Culture medium containing the protozoa of 8×10^3, and the test sample comprising the predetermined amount of the test compound, and DMSO without the test compound were added into each well of 96-well culture plate to a final volume of 100 μL in duplicate.
as §1, with “Device” for “device”, “treated” for “trated”
as §2
A selective toxicity coefficient, which is used as an index for the selective toxicity for the protozoa of African trypanosomiasis, was calculated by the following equation, and the pharmaceutical effect was determined.
Selective toxicity coefficient=(EC50 value of the test sample for rat L6 cell)/(EC50 value of the test sample for the protozoa of African typanosomiasis)

[3] = system: Rat L6 cell (rat skeletal myoblast cell); experiment: in vitro growth-inhibiting assay of rat L6 cells; type: cell-based
Method: Rat L6 cell (rat skeletal myoblast cell) was cultured in RPMI-1640 culture medium supplemented with 1% of L-glutamine (200 mM) and fetal calf serum (10%) under 5% CO2 concentration at 37° C. A test sample was prepared by dissolving the test compounds according to the present invention and a positive control drug in DMSO to a predetermined concentration. After pre-culture had been finished, the culture medium containing the cells in a logarithmic phase was placed into each well of a 96-well culture plate, and the test sample comprising the predetermined amount of the test compound, and DMSO without the test compound were added to the wells in duplicate.
After incubation of the culture plate for 72 hours in an incubator, a growth-inhibiting activity was assayed as follows. Alamar Blue aqueous solution (10 μL) was added to each well followed by a further two-hour culture. The culture plate was then attached to a fluorescence micro titer plate reader (Spectramax Gemeni XS; U.S. Molecular Device Co.), and the intensity of fluorescence at 588 nm was detected with an excitation wave length of 536 nm. A residual ratio of L6 cells was calculated with respect to a group treated with the test sample and a control group. A growth-inhibiting ratio for L6 cells was then calculated from the resulting residual ratio in accordance with the following equation to determine 50% growth-inhibiting concentration (EC50).
Growth-inhibiting ratio (%)=[1−(C−A)/(B−A)]×100 • A: Initial number of cells; • B: Number of the cells in the control after 3 days; and • C: Number of the cells treated with the test sample after 3 days Determination of Pharmaceutical effect for Chloroquine-Resistant Malaria

[4] = mouse, in vivo, po
[5] = Table 3, 72 h, Alamar Blue, read-out: 50% growth-inhibiting concentration (nM) cytotoxicity L6
[6] = Table 8, read-out: 50% growth-inhibiting concentration (nM) cytotoxicity L6
[7] = Table 9, read-out: 50% growth-inhibiting concentration (nM) cytotoxicity L6
[8] = Table 10, read-out: growth-inhibiting concentration (nM) Cytotoxicity L6

For `CCN(CC)c1ccc2nc3ccc(=[N+](CC)CC)cc-3oc2c1.[Cl-]` [A-1 (60% purity)], the EC50 [1] was 2810 nM, the EC50 [2] was 181 nM and the EC50 [3] was 3950 nM. The “reduction in weight or change of the conditions of mice attributed to side effects” value [4] was “No reduction in weight or change of the conditions of mice”.
With `CCN(CC)c1ccc2nc3ccc(=[N+](CC)CC)cc-3oc2c1.[Cl-]` [A-1 (>95% purity)] the EC50 [3] was 20500 nM and the “reduction in weight or change of the conditions of mice attributed to side effects” value [4] was “No reduction in weight or change of the conditions of mice”.
In the case of `CN(C)c1ccc2nc3ccc(=[N+](C)C)cc-3oc2c1.CN(C)c1ccc2nc3ccc(=[N+](C)C)cc-3oc2c1.[Cl-].[Cl-].[Cl][Zn][Cl]` [Compound A-3], the EC50 [1] is reported as 887 nM, the EC50 [2] is reported as 565 nM and the EC50 [3, 5] is reported as 8870 nM. For the same compound, the EC50 [3, 6] was 8870 nM, the EC50 [3, 7] was 8870 nM and the EC50 [3, 8] was 8870 nM.
Compound `CC[N+](CC)=c1ccc2nc3ccc(N(C)C)cc3oc-2c1` [Compound A-4] has a Selective toxicity ([2]; EC50 rat L6 cell / EC50 protozoa of African trypanosomiasis) of 9.4 and an EC50 ([2]; Trypanosoma brucei, STIB900) of 497 nM.
In the case of `CCCC[N+](CCCC)=c1ccc2nc3ccc(N(CC)CC)cc3oc-2c1.[Cl-]` [Compound A-6], the EC50 [1] is reported as 23 nM, the EC50 [2] is reported as 67.2 nM and the EC50 [3, 5] is reported as 839 nM. For the same compound, the EC50 [3, 6] was 839 nM, the EC50 [3, 7] was 839 nM and the EC50 [3, 8] was 839 nM.
`CCCC[N+](CCCC)=c1ccc2nc3ccc(N(C)C)cc3oc-2c1.[O-][Cl+3]([O-])([O-])[O-]` [Compound A-7] showed an EC50 [1] of 6 nM, an EC50 [2] of 113 nM and an EC50 [3, 5] of 409 nM. The EC50 [3, 6] was 409 nM, the EC50 [3, 7] was 409 nM and the EC50 [3, 8] was 409 nM.
